Legend:
Assay type in all cases: in vivo
[1] = system: bermudagrass (Cynodon dactylon); assay: Test C pre-/postemergence: bermudagrass
Procedure, shortened: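 Visual injury scored 0–100 (100 = complete control) against untreated controls after 13–15 greenhouse days. Surfactant-containing solvent formulations applied either to soil after sowing (loam/sand) or over 1- to 4-leaf plants, 2–18 cm tall.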

[2] = system: Russian thistle (Salsola kali); assay: Test C pre-/postemergence: Russian thistle; details: Preemergence
Description: Seeds of plant species selected from blackgrass (Alopecurus myosuroides), bromegrass, downy (downy bromegrass, Bromus tectorum), foxtail, green (green foxtail, Setaria viridis), ryegrass, Italian (Italian ryegrass, Lolium multiflorum), winter wheat (Triticum aestivum), wild oat (Avena fatua), galium (catchweed bedstraw, Galium aparine), bermudagrass (Cynodon dactylon), surinam grass (Brachiaria decumbens), cocklebur (common cocklebur, Xanthium strumarium), corn (Zea mays), large crabgrass (Digitaria sanguinalis), woolly cupgrass (Eriochloa villosa), foxtail, giant (giant foxtail, Setaria faberii), goosegrass (Eleusine indica), johnsongrass (Sorghum halepense), kochia (Kochia scoparia), lambsquarters (Chenopodium album), morningglory (Ipomoea coccinea), nightshade (eastern black nightshade, Solanum ptycanthum), nutsedge, yellow (yellow nutsedge, Cyperus esculentus), pigweed (Amaranthus retroflexus), ragweed (common ragweed, Ambrosia elation), soybean (Glycine max), common (oilseed) sunflower (Helianthus annuus), Russian thistle (Salsola kali) and velvetleaf (Abutilon theophrasti) were planted into a blend of loam soil and sand and treated preemergence with test chemicals formulated in a non-phytotoxic solvent mixture which included a surfactant.
At the same time, plants selected from these crop and weed species and also barley (winter barley, Hordeum vulgare), canarygrass (Phalaris minor), chickweed (common chickweed, Stellaria media) windgrass (Apera spica-venti) and deadnettle (henbit deadnettle, Lamium amplexicaule) were planted in pots containing Redi-Earth® planting medium (Scotts Company, 14111 Scottslawn Road, Marysville, Ohio 43041) comprising spaghnum peat moss, vermiculite, wetting agent and starter nutrients and treated with postemergence applications of test chemicals formulated in the same manner. Plants ranged in height from 2 to 18 cm (1- to 4-leaf stage) for postemergence treatments.
(§1) Treated plants and controls were maintained in a greenhouse for 13 to 15 days, after which time all species were compared to controls and visually evaluated. Plant response ratings, summarized in Table C, are based on a scale of 0 to 100 where 0 is no effect and 100 is complete control. A dash (-) response means no test result.

[3] = system: ducksalad (Heteranthera limosa); assay: Test C flooded paddy test: ducksalad; details: Heteranthera limosa, scale 0 to 100 (0 no effect, 100 complete control), read-out: Plant response rating, Ducksalad
Procedure, shortened: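 Rating: visual, 0–100 (100 = complete control), versus untreated controls after 13 to 15 greenhouse days. Treatment went into paddy water held at 3 cm over the soil, on plants grown to two leaves.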

[4] = system: foxtail, green (green foxtail, Setaria viridis); assay: Test D pre-/postemergence: foxtail, green
Procedure, shortened: (§2)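 Applied as a non-phytotoxic solvent formulation with surfactant, compounds were tested preemergence in silt loam and postemergence on seedlings 2 to 18 cm high in peat-vermiculite medium. Evaluation was visual, 0 meaning no effect and 100 complete control, at 14 to 21 days.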

[5] = system: kochia (Kochia scoparia); assay: Test D pre-/postemergence: kochia
Procedure, shortened: as §2

[6] = system: oilseed rape (Brassica napus); assay: Test D pre-/postemergence: oilseed rape
Description: (§3) Seeds of plant species selected from bluegrass (annual bluegrass, Poa annua), blackgrass (Alopecurus myosuroides), canarygrass (Phalaris minor), chickweed (common chickweed, Stellaria media), galium (catchweed bedstraw, Galium aparine), bromegrass, downy (downy bromegrass, Bromus tectorum), field poppy (Papaver rhoeas), field violet (Viola arvensis), foxtail, green (green foxtail, Setaria viridis), deadnettle (henbit deadnettle, Lamium amplexicaule), ryegrass, Italian (Italian ryegrass, Lolium multiflorum), kochia (Kochia scoparia), lambsquarters (Chenopodium album), oilseed rape (Brassica napus), pigweed (Amaranthus retroflexus), Russian thistle (Salsola iberica), chamomile (scentless chamomile, Matricaria inodora), speedwell (bird's-eye speedwell, Veronica persica), barley, spring (spring barley, Hordeum vulgare), wheat, spring (spring wheat, Triticum aestivum), buckwheat, wild (wild buckwheat, Polygonum convolvulus), mustard, wild (wild mustard, Sinapis arvensis), oat, wild (wild oat, Avena fatua), radish, wild (wild radish, Raphanus raphanistrum), windgrass (Apera spica-venti), barley, winter (winter barley, Hordeum vulgare), and wheat, winter (winter wheat, Triticum aestivum) were planted into a silt loam soil and treated preemergence with test chemicals formulated in a non-phytotoxic solvent mixture which included a surfactant. At the same time, these same crop and weed species were planted in pots containing the planting medium comprising spaghnum peat moss, vermiculite, wetting agent and starter nutrients and treated with postemergence applications of the test chemicals formulated in the same manner. Plants ranged in height from 2 to 18 cm (1- to 4-leaf stage).
as §1, with “controlled growth environment” for “greenhouse”, “14” for “13”, “21 days” for “15 days,”, “D,” for “C,”

[7] = system: pigweed (Amaranthus retroflexus); assay: Test D pre-/postemergence: pigweed
Description: as §3
as §1, with “controlled growth environment” for “greenhouse”, “14” for “13”, “21 days” for “15 days,”, “D,” for “C,”

[8] = system: barley, winter (winter barley, Hordeum vulgare); assay: Test D pre-/postemergence: barley, winter
Description: as §3
as §1, with “controlled growth environment” for “greenhouse”, “14” for “13”, “21 days” for “15 days,”, “D,” for “C,”

[9] = Postemergence, 31 g ai/ha, scale 0 to 100 (0 no effect, 100 complete control)
[10] = Postemergence, 62 g ai/ha, scale 0 to 100 (0 no effect, 100 complete control)
[11] = Postemergence, 125 g ai/ha, scale 0 to 100, 0 no effect, 100 complete control
[12] = Postemergence, 250 g ai/ha, scale 0 to 100
[13] = Preemergence, 31 g ai/ha, scale of 0 to 100, 0 is no effect, 100 is complete control
[14] = Preemergence, 125 g ai/ha, scale 0 to 100, 0 no effect, 100 complete control
[15] = Preemergence, 250 g ai/ha, scale 0 to 100, 0 no effect, 100 complete control
[16] = 31 g ai/ha, scale of 0 to 100, 0 is no effect, 100 is complete control
[17] = 62 g ai/ha, scale of 0 to 100, 0 is no effect, 100 is complete control
[18] = 125 g ai/ha, scale 0 to 100, 0 no effect, 100 complete control
[19] = 250 g ai/ha, scale 0 to 100, 0 no effect, 100 complete control
[20] = Preemergence, 62 g ai/ha, scale of 0 to 100, 0 is no effect, 100 is complete control
[21] = Postemergence, 8 g ai/ha, scale 0 to 100
[22] = Postemergence, 16 g ai/ha, scale 0 to 100
[23] = Preemergence, 16 g ai/ha, scale 0 to 100 (0 no effect, 100 complete control)
[24] = Preemergence, 31 g ai/ha, scale 0 to 100 (0 no effect, 100 complete control)
[25] = Preemergence, 62 g ai/ha, scale 0 to 100
[26] = Preemergence, 125 g ai/ha, scale 0 to 100

## Cc1nn(-c2ccc(C(F)(F)F)cc2)nc1Cc1ccnc(C(F)(F)F)c1 [Compound 47, 4-[[5-methyl-2-[4-(trifluoromethyl)phenyl]-2H-1,2,3-triazol-4-yl]methyl]-2-(trifluoromethyl)pyridine]
[1]; [9]
  Plant response rating, Bermudagrass: 10
[1]; [10]
  Plant response rating, Bermudagrass: 20
[1]; [11]
  Plant response rating, Bermudagrass: 55
[1]; [12]
  Plant response rating, Bermudagrass: 75
[1]; [13]
  Plant response rating, Bermudagrass: 100
[1]; Preemergence, 62 g ai/ha, scale 0 to 100, 0 no effect, 100 complete control
  Plant response rating, Bermudagrass: 100
[1]; [14]
  Plant response rating, Bermudagrass: 100
[1]; [15]
  Plant response rating, Bermudagrass: 100
[2]; [16]
  Plant response rating, Russian Thistle: 85
[2]; [17]
  Plant response rating, Russian Thistle: 100
[2]; [18]
  Plant response rating, Russian Thistle: 100
[2]; [19]
  Plant response rating, Russian Thistle: 100
[3]; Flood (flooded paddy test), 62 g ai/ha, visual rating after 13 to 15 days
  pest or weed control at 62 g/ha: 90%
[3]; Flood (flooded paddy test), 125 g ai/ha, visual rating after 13 to 15 days
  pest or weed control at 125 g/ha: 90%
[3]; Flood (flooded paddy test), 250 g ai/ha, visual rating after 13 to 15 days
  pest or weed control at 250 g/ha: 90%
[3]; Flood, 31 g ai/ha
  pest or weed control at 31 g/ha: 0%

## Fc1ccc(-n2nc(Cc3ccnc(C(F)(F)F)c3)c(OCC(F)(F)F)n2)cc1 [Compound 142]
[1]; [9]
  Plant response rating, Bermudagrass: 15
[1]; [10]
  Plant response rating, Bermudagrass: 70
[1]; [11]
  Plant response rating, Bermudagrass: 75
[1]; [12]
  Plant response rating, Bermudagrass: 85
[1]; [13]
  Plant response rating, Bermudagrass: 98
[1]; [20]
  Plant response rating, Bermudagrass: 98
[1]; [14]
  Plant response rating, Bermudagrass: 98
[1]; [15]
  Plant response rating, Bermudagrass: 98
[2]; [17]
  Plant response rating, Russian Thistle: 80
[2]; [18]
  Plant response rating, Russian Thistle: 90
[2]; [19]
  Plant response rating, Russian Thistle: 90

## Cc1nn(-c2ccc(F)c(F)c2)nc1Oc1ccnc(C(F)(F)F)c1 [Compound 145]
[1]; [9]
  Plant response rating, Bermudagrass: 10
[1]; [10]
  Plant response rating, Bermudagrass: 40
[1]; [11]
  Plant response rating, Bermudagrass: 75
[1]; [12]
  Plant response rating, Bermudagrass: 90
[1]; [13]
  Plant response rating, Bermudagrass: 98
[1]; [20]
  Plant response rating, Bermudagrass: 98
[1]; [14]
  Plant response rating, Bermudagrass: 98
[1]; [15]
  Plant response rating, Bermudagrass: 98
[2]; [16]
  Plant response rating, Russian Thistle: 0
[2]; [18]
  Plant response rating, Russian Thistle: 90
[2]; [19]
  Plant response rating, Russian Thistle: 95
[4]; [9]
  Plant response rating: Foxtail, Green: 60
[4]; [10]
  Plant response rating: Foxtail, Green: 100
[4]; [11]
  Plant response rating: Foxtail, Green: 100
[4]; [21]
  Plant response rating, Foxtail, Green: 5
[4]; [22]
  Plant response rating, Foxtail, Green: 5
[5]; [9]
  Plant response rating: Kochia: 98
[5]; [10]
  Plant response rating: Kochia: 100
[5]; [11]
  Plant response rating: Kochia: 100
[5]; [21]
  Plant response rating, Kochia: 80
[5]; [22]
  Plant response rating, Kochia: 90
[6]; [9]
  Plant response rating: Oilseed Rape: 50
[6]; [10]
  Plant response rating: Oilseed Rape: 70
[6]; [11]
  Plant response rating: Oilseed Rape: 100
[6]; [21]
  Plant response rating, Oilseed Rape: 0
[6]; [22]
  Plant response rating, Oilseed Rape: 50
[7]; [9]
  Plant response rating: Pigweed: 95
[7]; [10]
  Plant response rating: Pigweed: 100
[7]; [11]
  Plant response rating: Pigweed: 100
[7]; [21]
  Plant response rating, Pigweed: 20
[7]; [22]
  Plant response rating, Pigweed: 70
[8]; [9]
  Plant response rating: Barley, Winter: 5
[8]; [10]
  Plant response rating: Barley, Winter: 10
[8]; [11]
  Plant response rating: Barley, Winter: 20
[8]; [21]
  Plant response rating, Barley, Winter: 0
[8]; [22]
  Plant response rating, Barley, Winter: 5

## Cc1nn(-c2ccc(F)c(C(F)(F)F)c2)nc1Oc1ccnc(C(F)(F)F)c1 [Compound 147]
[1]; [13]
  Plant response rating, Bermudagrass: 100
[1]; [20]
  Plant response rating, Bermudagrass: 100
[1]; [14]
  Plant response rating, Bermudagrass: 100
[1]; [15]
  Plant response rating, Bermudagrass: 100
[2]; [16]
  Plant response rating, Russian Thistle: 0
[2]; [17]
  Plant response rating, Russian Thistle: 90
[2]; [18]
  Plant response rating, Russian Thistle: 90
[2]; [19]
  Plant response rating, Russian Thistle: 90
[4]; [9]
  Plant response rating: Foxtail, Green: 15
[4]; [10]
  Plant response rating: Foxtail, Green: 25
[4]; [11]
  Plant response rating: Foxtail, Green: 60
[4]; [22]
  Plant response rating, Foxtail, Green: 15
[4]; [23]
  Plant response rating, Foxtail, Green: 10
[4]; [24]
  Plant response rating, Foxtail, Green: 25
[4]; [25]
  Plant response rating, Foxtail, Green: 75
[4]; [26]
  Plant response rating, Foxtail, Green: 100
[5]; [9]
  Plant response rating: Kochia: 85
[5]; [10]
  Plant response rating: Kochia: 90
[5]; [11]
  Plant response rating: Kochia: 95
[5]; [22]
  Plant response rating, Kochia: 70
[5]; [23]
  Plant response rating, Kochia: 15
[5]; [24]
  Plant response rating, Kochia: 15
[5]; [25]
  Plant response rating, Kochia: 50
[5]; [26]
  Plant response rating, Kochia: 70
[6]; [9]
  Plant response rating: Oilseed Rape: 60
[6]; [10]
  Plant response rating: Oilseed Rape: 95
[6]; [11]
  Plant response rating: Oilseed Rape: 100
[6]; [22]
  Plant response rating, Oilseed Rape: 25
[6]; [23]
  Plant response rating, Oilseed Rape: 0
[6]; [24]
  Plant response rating, Oilseed Rape: 0
[6]; [25]
  Plant response rating, Oilseed Rape: 5
[6]; [26]
  Plant response rating, Oilseed Rape: 15
[7]; [9]
  Plant response rating: Pigweed: 70
[7]; [10]
  Plant response rating: Pigweed: 85
[7]; [11]
  Plant response rating: Pigweed: 95
[7]; [22]
  Plant response rating, Pigweed: 75
[7]; [23]
  Plant response rating, Pigweed: 35
[7]; [24]
  Plant response rating, Pigweed: 75
[7]; [25]
  Plant response rating, Pigweed: 80
[7]; [26]
  Plant response rating, Pigweed: 100
[8]; [9]
  Plant response rating: Barley, Winter: 20
[8]; [10]
  Plant response rating: Barley, Winter: 25
[8]; [11]
  Plant response rating: Barley, Winter: 30
[8]; [22]
  Plant response rating, Barley, Winter: 15
[8]; [23]
  Plant response rating, Barley, Winter: 0
[8]; [24]
  Plant response rating, Barley, Winter: 0
[8]; [25]
  Plant response rating, Barley, Winter: 5
[8]; [26]
  Plant response rating, Barley, Winter: 15
